From ChEMBL document CHEMBL5241098, “Progress in the development of small molecular inhibitors of the Bruton's tyrosine kinase (BTK) as a promising cancer therapy” (Bioorg Med Chem, 2021)

Key:
Raji = assay: Antiproliferative activity against human Raji cells assessed as reduction in cell viability incubated for 72 hrs by CCK-8 assay
Ramos [1] = assay: Antiproliferative activity against human Ramos cells assessed as reduction in cell viability incubated for 72 hrs by CCK-8 assay
NAMALVA = assay: Antiproliferative activity against human NAMALVA cells assessed as reduction in cell viability incubated for 72 hrs by CCK-8 assay
[2] = target: T1, Tyrosine-protein kinase BTK (Homo sapiens, UniProt Q06187); assay: Inhibition of BTK (unknown origin)
OCI-Ly7 = assay: Growth inhibition of human OCILY7 cells; format: functional
[3] = target: T2, Receptor-type tyrosine-protein kinase FLT3 (Homo sapiens, UniProt P36888); assay: Inhibition of FLT3 (unknown origin)
T2 sequence (P36888 whole entry): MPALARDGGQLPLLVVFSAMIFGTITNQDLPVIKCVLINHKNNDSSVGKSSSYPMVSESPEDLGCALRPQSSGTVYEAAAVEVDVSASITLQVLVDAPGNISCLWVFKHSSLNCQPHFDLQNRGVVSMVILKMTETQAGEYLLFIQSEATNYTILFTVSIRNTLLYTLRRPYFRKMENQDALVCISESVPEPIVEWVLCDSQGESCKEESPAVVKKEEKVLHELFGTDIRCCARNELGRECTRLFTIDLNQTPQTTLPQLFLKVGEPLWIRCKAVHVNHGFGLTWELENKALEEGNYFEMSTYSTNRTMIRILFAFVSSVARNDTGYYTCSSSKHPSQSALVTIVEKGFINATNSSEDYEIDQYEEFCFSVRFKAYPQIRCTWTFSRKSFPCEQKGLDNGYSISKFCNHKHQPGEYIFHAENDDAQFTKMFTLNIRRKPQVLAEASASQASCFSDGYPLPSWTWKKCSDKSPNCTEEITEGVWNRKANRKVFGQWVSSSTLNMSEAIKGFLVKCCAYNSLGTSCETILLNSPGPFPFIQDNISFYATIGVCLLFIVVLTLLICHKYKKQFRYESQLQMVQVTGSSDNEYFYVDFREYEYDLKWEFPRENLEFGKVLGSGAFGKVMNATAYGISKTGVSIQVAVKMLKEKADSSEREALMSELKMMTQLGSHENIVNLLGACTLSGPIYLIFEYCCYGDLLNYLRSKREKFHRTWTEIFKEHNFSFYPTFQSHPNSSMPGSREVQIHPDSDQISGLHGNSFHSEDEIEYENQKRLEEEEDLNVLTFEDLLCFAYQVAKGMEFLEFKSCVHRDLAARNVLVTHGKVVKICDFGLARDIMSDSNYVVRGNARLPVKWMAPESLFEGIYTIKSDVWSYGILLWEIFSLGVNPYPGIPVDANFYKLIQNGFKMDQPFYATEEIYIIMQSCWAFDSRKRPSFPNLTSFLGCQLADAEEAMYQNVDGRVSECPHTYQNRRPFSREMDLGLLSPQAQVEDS

[4] = target: T1, Tyrosine-protein kinase BTK; assay: Inhibition of BTK (unknown origin) incubated for 40 mins in the presence of ATP by scintillation based radiometric protein kinase assay
[5] = Antiproliferative activity against human MINO cells assessed as reduction in cell viability incubated for 72 hrs by CellTiter Glo luminescence assay
JeKo-1 = assay: Antiproliferative activity against BTK knockout human JeKo-1 cells assessed as reduction in cell viability incubated for 72 hrs by CellTiter Glo luminescence assay; details: JeKo-1, 72 h
Z-138 = assay: Antiproliferative activity against human Z138 cells assessed as reduction in cell viability incubated for 72 hrs by CellTiter Glo luminescence assay; details: Z-138, 72 h
Maver1 = assay: Antiproliferative activity against human MAVER-1 cells assessed as reduction in cell viability incubated for 72 hrs by CellTiter Glo luminescence assay; details: Maver1, 72 h
[6] = target: T3, Protein cereblon/Tyrosine-protein kinase BTK (Homo sapiens, UniProt Q06187+Q96SW2); assay: PROTAC activity at CRBN/BTK in human MINO cells assessed as decrease in BTK level incubated for 24 hrs by Western blot analysis; format: cell-based
Target sequence in this assay (Q06187 whole entry): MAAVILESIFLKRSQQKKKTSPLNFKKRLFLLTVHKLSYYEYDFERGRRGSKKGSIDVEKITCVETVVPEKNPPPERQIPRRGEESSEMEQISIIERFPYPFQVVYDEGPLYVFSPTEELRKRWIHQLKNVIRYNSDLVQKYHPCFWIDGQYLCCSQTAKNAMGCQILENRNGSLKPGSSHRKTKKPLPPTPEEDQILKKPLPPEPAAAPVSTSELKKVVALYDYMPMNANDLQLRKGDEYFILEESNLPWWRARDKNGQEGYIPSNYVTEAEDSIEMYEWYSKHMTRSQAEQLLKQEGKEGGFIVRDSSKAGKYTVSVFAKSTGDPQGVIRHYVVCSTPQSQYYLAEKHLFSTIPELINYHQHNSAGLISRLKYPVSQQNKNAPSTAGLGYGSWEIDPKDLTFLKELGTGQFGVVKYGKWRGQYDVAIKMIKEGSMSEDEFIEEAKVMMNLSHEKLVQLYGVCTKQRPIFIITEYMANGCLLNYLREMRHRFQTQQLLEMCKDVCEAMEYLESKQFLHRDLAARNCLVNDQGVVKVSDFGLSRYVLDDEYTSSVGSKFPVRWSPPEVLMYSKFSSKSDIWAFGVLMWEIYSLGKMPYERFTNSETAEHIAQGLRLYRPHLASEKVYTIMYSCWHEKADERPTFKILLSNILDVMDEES
Target sequence in this assay (Q96SW2 whole entry): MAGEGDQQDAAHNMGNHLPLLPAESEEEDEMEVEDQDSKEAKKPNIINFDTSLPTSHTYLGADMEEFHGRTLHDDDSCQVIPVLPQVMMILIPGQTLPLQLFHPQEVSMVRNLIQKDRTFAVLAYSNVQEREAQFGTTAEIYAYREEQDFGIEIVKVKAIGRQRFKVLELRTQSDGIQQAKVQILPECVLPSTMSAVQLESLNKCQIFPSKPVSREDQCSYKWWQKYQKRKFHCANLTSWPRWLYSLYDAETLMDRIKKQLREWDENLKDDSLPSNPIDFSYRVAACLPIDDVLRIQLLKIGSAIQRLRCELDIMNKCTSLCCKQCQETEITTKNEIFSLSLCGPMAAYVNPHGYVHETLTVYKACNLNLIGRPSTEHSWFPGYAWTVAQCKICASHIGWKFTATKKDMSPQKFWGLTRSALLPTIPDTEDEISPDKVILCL

[7] = target: T3, Protein cereblon/Tyrosine-protein kinase BTK; assay: PROTAC activity at CRBN/BTK in human MINO cells assessed as decrease in BTK level by measuring maximal efficacy incubated for 24 hrs by Western blot analysis relative to control; format: cell-based
Target sequence in this assay (Q06187 2-659 limits assumed): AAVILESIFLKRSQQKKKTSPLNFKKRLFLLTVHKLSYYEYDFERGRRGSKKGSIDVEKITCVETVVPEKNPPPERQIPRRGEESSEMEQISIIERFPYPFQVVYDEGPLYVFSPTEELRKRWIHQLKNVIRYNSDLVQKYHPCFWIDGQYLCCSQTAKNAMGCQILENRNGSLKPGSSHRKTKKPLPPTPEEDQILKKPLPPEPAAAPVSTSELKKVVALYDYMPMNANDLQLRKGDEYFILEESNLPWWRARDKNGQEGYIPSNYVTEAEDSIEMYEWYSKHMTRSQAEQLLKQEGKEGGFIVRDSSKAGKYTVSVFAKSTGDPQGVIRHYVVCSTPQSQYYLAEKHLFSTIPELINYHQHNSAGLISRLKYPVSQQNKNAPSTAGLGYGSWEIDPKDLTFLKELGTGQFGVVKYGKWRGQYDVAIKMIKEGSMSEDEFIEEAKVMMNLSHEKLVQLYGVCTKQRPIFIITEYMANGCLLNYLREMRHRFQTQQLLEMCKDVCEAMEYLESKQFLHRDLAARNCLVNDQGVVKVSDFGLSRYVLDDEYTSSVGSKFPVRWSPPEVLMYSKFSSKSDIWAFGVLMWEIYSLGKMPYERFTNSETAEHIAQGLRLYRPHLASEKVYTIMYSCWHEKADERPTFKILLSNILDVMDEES
Target sequence in this assay (Q96SW2 whole entry partner): as the sequence (Q96SW2 whole entry) above

[8] = target: T3, Protein cereblon/Tyrosine-protein kinase BTK; assay: PROTAC activity at CRBN/BTK in human NAMALVA cells assessed as decrease in BTK level incubated for 24 hrs by Western blot analysis; format: cell-based
Target sequence in this assay (Q06187 whole entry): as the sequence (Q06187 whole entry) above
Target sequence in this assay (Q96SW2 whole entry): as the sequence (Q96SW2 whole entry) above

[9] = target: T3, Protein cereblon/Tyrosine-protein kinase BTK; assay: PROTAC activity at CRBN/BTK in human NAMALVA cells assessed as decrease in BTK level by measuring maximal efficacy incubated for 24 hrs by Western blot analysis relative to control; format: cell-based
Target sequence in this assay (Q06187 2-659 limits assumed): as the sequence (Q06187 2-659 limits assumed) above
Target sequence in this assay (Q96SW2 whole entry partner): as the sequence (Q96SW2 whole entry) above

[10] = target: T1, Tyrosine-protein kinase BTK; assay: Inhibition of BTK (unknown origin) in the presence of ATP
[11] = Inhibition of CDK2/Cyclin E (unknown origin) in the presence of ATP; set-up: species or system Homo sapiens
[12] = target: T1, Tyrosine-protein kinase BTK; assay: Competitive inhibition of recombinant human BTK incubated for 10 mins in the presence of ATP by mobility shift assay
OCI-Ly10 = assay: Antiproliferative activity against human OCILY10 cells assessed as inhibition of cell growth
[13] = Antiproliferative activity against human MINO cells assessed as inhibition of cell growth
A549 = assay: Antiproliferative activity against human A549 cells assessed as inhibition of cell growth
[14] = target: T4, Protein cereblon/Tyrosine-protein kinase BTK (Homo sapiens, UniProt Q06187+Q96SW2, C481S); assay: PROTAC activity at CRBN/BTK C481S mutant in human Ramos cells assessed as decrease in BTK C481S level incubated for 48 hrs by immunoblot analysis; format: cell-based
[15] = target: E3 ubiquitin-protein ligase XIAP/Tyrosine-protein kinase BTK (Homo sapiens, UniProt P98170+Q06187); assay: PROTAC activity at IAP/BTK in human THP-1 cells assessed as reduction in BTK level incubated for 16 hrs by immunoblot analysis; format: cell-based
[16] = target: Tyrosine-protein kinase Lck (Homo sapiens, UniProt P06239); assay: Inhibition of LCK (unknown origin)
[17] = target: T4, Protein cereblon/Tyrosine-protein kinase BTK; assay: PROTAC activity at CRBN/BTK C481S mutant in human HBL1 cells assessed as decrease in BTK C481S level incubated for 36 hrs by Western blot analysis; format: cell-based
[18] = target: T5, Tyrosine-protein kinase JAK3 (Homo sapiens, UniProt P52333); assay: Inhibition of JAK3 (unknown origin)
T5 sequence (P52333 whole entry): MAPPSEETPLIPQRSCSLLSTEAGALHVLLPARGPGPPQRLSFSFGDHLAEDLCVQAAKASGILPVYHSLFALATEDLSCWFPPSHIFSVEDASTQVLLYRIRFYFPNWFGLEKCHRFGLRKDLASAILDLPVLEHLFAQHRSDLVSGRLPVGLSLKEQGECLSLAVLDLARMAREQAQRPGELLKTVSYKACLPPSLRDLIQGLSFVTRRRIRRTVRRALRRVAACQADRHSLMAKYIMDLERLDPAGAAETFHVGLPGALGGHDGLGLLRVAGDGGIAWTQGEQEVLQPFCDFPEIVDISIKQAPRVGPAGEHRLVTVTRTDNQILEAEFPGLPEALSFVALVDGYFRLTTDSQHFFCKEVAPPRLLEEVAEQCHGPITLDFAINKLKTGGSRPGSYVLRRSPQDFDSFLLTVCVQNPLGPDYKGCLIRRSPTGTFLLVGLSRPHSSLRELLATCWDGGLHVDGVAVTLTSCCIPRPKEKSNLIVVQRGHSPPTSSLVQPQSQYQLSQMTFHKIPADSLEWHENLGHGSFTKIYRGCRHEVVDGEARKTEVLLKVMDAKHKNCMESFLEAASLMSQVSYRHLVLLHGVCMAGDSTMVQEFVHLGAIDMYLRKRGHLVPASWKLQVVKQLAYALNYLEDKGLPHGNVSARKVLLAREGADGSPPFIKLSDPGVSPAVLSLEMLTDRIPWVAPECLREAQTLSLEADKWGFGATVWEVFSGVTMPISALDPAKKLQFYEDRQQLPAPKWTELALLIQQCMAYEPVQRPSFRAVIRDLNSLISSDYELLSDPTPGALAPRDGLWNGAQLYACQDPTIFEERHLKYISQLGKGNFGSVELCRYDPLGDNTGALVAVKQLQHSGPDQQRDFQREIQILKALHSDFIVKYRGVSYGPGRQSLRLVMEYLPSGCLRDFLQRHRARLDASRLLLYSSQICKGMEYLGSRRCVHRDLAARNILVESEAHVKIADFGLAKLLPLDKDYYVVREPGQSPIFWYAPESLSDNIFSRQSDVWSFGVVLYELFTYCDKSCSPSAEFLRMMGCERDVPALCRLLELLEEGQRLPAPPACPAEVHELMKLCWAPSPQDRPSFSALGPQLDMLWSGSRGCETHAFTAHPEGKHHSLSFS

[19] = target: Epidermal growth factor receptor (Homo sapiens, UniProt P00533); assay: Inhibition of EGFR (unknown origin)
U2932 = assay: Growth inhibition of human U2932 cells; format: functional
Ramos [20] = assay: Growth inhibition of human Ramos cells; format: functional

T1 sequence (Q06187 whole entry): as the sequence (Q06187 whole entry) above
T4 sequence (Q06187 2-659 C481S limits assumed, stated change not applied): as the sequence (Q06187 2-659 limits assumed) above, with C480S counted along it
T4 sequence (Q96SW2 whole entry, stated change not applied): as the sequence (Q96SW2 whole entry) above
Sequence of Tyrosine-protein kinase Lck (P06239 whole entry): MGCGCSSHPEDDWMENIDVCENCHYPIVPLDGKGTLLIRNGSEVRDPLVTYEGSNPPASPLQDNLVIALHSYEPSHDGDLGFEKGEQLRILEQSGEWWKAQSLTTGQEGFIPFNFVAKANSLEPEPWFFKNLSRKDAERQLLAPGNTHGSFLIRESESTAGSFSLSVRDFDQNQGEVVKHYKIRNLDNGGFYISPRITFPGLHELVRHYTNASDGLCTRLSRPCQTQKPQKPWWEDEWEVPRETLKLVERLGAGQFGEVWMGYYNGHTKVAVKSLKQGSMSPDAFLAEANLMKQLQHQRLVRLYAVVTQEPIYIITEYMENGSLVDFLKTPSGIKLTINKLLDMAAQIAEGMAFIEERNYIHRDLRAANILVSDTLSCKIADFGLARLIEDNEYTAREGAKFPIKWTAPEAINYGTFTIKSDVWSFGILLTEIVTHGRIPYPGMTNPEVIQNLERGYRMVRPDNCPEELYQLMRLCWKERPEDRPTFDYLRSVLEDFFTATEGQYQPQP
Sequence of E3 ubiquitin-protein ligase XIAP/Tyrosine-protein kinase BTK (P98170 whole entry): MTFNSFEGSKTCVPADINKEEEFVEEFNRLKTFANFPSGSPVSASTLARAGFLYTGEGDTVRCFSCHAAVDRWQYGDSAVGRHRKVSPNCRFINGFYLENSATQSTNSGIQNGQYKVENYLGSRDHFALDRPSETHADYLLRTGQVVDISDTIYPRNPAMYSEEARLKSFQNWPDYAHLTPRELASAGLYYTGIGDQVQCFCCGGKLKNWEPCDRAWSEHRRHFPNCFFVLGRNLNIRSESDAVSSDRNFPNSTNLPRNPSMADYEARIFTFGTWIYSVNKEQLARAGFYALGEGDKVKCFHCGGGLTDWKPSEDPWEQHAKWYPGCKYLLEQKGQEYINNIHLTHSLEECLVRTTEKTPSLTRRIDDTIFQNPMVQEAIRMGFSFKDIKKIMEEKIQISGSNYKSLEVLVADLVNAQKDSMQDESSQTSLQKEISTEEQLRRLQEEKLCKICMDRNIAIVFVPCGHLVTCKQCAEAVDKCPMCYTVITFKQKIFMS
Sequence of E3 ubiquitin-protein ligase XIAP/Tyrosine-protein kinase BTK (Q06187 whole entry): as the sequence (Q06187 whole entry) above
Sequence of Epidermal growth factor receptor (P00533 whole entry): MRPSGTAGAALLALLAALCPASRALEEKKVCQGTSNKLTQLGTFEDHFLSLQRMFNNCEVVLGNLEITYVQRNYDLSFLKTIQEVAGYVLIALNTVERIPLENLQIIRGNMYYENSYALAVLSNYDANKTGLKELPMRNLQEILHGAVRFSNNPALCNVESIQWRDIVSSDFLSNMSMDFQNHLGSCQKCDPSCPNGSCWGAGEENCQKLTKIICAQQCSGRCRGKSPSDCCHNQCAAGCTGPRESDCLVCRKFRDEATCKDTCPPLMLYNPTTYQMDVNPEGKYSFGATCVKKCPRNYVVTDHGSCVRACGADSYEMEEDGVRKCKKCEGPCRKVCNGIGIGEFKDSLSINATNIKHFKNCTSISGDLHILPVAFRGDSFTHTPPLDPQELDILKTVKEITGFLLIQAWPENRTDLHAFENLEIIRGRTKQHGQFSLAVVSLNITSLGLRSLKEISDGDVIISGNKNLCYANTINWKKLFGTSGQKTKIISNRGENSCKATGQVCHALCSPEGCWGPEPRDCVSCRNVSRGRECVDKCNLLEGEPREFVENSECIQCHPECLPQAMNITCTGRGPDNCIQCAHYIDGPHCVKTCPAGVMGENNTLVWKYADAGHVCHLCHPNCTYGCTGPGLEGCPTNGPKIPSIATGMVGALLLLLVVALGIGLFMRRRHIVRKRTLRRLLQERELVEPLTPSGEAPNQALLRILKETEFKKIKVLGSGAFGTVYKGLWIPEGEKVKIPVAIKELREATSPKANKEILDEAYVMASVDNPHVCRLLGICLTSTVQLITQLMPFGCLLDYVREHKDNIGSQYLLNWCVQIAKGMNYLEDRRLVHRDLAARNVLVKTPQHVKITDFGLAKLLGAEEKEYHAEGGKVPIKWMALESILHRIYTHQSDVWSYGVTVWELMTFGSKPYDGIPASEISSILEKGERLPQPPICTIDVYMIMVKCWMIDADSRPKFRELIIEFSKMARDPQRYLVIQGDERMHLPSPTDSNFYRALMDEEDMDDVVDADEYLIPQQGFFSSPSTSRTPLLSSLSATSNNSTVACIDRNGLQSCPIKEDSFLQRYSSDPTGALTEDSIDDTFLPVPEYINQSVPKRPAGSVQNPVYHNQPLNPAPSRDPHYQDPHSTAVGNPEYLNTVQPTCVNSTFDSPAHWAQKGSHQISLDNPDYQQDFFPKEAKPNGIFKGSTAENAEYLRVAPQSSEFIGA

SMILES: C=CC(=O)Nc1cccc(Nc2nc(Nc3ccc(Cn4cc(C)nc4CC)cc3)ncc2F)c1
- IC50 (Raji): 4.37 µM
- IC50 (Ramos [1]): 9.25 µM
- IC50 (NAMALVA): 4.95 µM

SMILES: C=CC(=O)NCC(=O)Nc1ncc(NC(=O)c2cc(C)cc(NC(=O)c3cccc(C)c3)c2)cn1
- IC50 [2]: < 5 nM
- GI50 (OCI-Ly7): 220 nM

SMILES: Cc1cnc(-c2ccc(-c3ccc(NC(=O)Nc4cccc(C(F)(F)F)c4)cc3F)c3c2C(=O)NC3)[nH]1
- IC50 [3]: 80 nM

SMILES: C=CC(=O)Nc1cccc(Cn2nc(-c3ccc(Oc4ccccc4)cc3)c3c(N)ncnc32)c1
- IC50 [4]: 50 nM
- IC50 [5]: 1.3 µM
- IC50 (JeKo-1): 1300 nM
- IC50 (Z-138): 2.8 µM
- IC50 (Maver1): 2600 nM

SMILES: Nc1ncnc2c1c(-c1ccc(Oc3ccccc3)cc1)nn2C1CCCN(C(=O)CCCCCCCOCCOCCOCCOCCOc2cccc3c2C(=O)N(C2CCC(=O)NC2=O)C3=O)C1 (stereo not drawn)
- EC50 [6]: 2.2 nM
- Emax [7]: 97%

SMILES: Nc1cccc(Cn2nc(-c3ccc(Oc4ccccc4)cc3)c3c(N)ncnc32)c1
- IC50 (JeKo-1): 11200 nM
- IC50 (Z-138): 14.2 µM
- IC50 (Maver1): 16800 nM

SMILES: Nc1ncnc2c1c(-c1ccc(Oc3ccccc3)cc1)nn2C1CCN(CCOCCOCC(=O)Nc2ccc3c(c2)C(=O)N(C2CCC(=O)NC2=O)C3=O)CC1 (stereo not drawn)
- EC50 [8]: 6.2 nM
- Emax [9]: > 99%

SMILES: CN1CCN(c2ccc(Nc3nc(Nc4ccc(F)cc4)c4ncn(CC5CC5)c4n3)cc2)CC1
- IC50 [10]: 1300 nM

SMILES: CN1CCN(c2ccc(Nc3nc(Nc4ccc(F)c(F)c4)c4ncn(CC5CC5)c4n3)cc2)CC1
- IC50 [11]: 18.5 µM

SMILES: C=C(Cl)C(=O)N1CCC(n2nc(-c3ccc(Oc4ccccc4)cc3)c3c(N)ncnc32)CC1
- IC50 [12]: 2.5 nM
- IC50 (OCI-Ly10): 200 nM
- IC50 [13]: 560 nM
- IC50 (A549): 3.89 µM

SMILES: CN1CCN(c2ccc(Nc3nc(Nc4ccccc4)c4ncn(CC5CC5)c4n3)cc2)CC1
- IC50 [10]: 900 nM

SMILES: Nc1ncnc2c1c(-c1ccc(Oc3ccccc3)nc1)nn2C1CCCN(C(=O)CCl)C1 (stereo not drawn)
- IC50 (JeKo-1): 400 nM
- IC50 (Maver1): 400 nM

SMILES: Nc1ncnc2c1c(-c1ccc(Oc3ccccc3)cc1)nn2C1CCCN(C(=O)/C=C/CCCCCOCCOCCOCCOCCOc2cccc3c2C(=O)N(C2CCC(=O)NC2=O)C3=O)C1 (stereo not drawn)
- EC50 [6]: 10 nM
- Emax [7]: 90%

SMILES: Nc1ncnc2c1c(-c1ccc(Oc3ccccc3)cc1)nn2Cc1ccccc1F
- IC50 [4]: 39 nM
- IC50 [5]: 11.1 µM
- IC50 (JeKo-1): 32900 nM
- IC50 (Z-138): 43.7 µM
- IC50 (Maver1): 34300 nM

SMILES: Nc1ncnc2c1c(-c1ccc(Oc3ccccc3)cc1)nn2[C@@H]1CCCN(C(=O)c2cn(CCOCCOCCOCCNc3cccc4c3C(=O)N(C3CCC(=O)NC3=O)C4=O)nn2)C1 (stereo partly drawn)
- EC50 [14]: 30 nM

SMILES: CN1CCN(c2ccc(Nc3nc(Nc4cccc(F)c4)c4ncn(CC5CC5)c4n3)cc2F)CC1
- IC50 [10]: 1810 nM

SMILES: CN[C@H](C)C(=O)N[C@@H](C(=O)N1C[C@@H](NC(=O)COCCOCCOCCOCCN2CCN(CCCC(=O)N3CCCC(n4nc(-c5ccc(Oc6ccccc6)cc5)c5c(N)ncnc54)C3)CC2)C[C@H]1C(=O)N[C@@H]1CCCc2ccccc21)C1CCCCC1 (stereo partly drawn)
- EC50 [15]: 200 nM

SMILES: C#C/C(=C\C(C)(C)CCCCOCCOCCOCCOCCOc1cccc2c1C(=O)N(C1CCC(=O)NC1=O)C2=O)C(=O)N1CCCC(n2nc(-c3ccc(Oc4ccccc4)cc3)c3c(N)ncnc32)C1 (stereo not drawn)
- EC50 [6]: 10 nM
- Emax [7]: 90%

SMILES: CN1CCN(c2ccc(Nc3nc(Nc4cccc(F)c4)c4ncn(CC5CC5)c4n3)cc2)CC1
- IC50 [10]: 660 nM

SMILES: Nc1ncnc2c1c(-c1ccc(Oc3ccccc3)cc1)nn2Cc1cccc(NC(=O)CCl)c1
- IC50 (JeKo-1): 400 nM
- IC50 (Z-138): 0.8 µM
- IC50 (Maver1): 400 nM

SMILES: O=C(c1ccc(Oc2ccccc2)cc1Cl)c1c[nH]c2ncnc(NC3CC[C@@H](CO)OC3)c12 (stereo partly drawn)
- IC50 [16]: 3.9 nM

SMILES: C=CC(=O)Nc1cccc(Nc2nc(Nc3ccc(Cn4cc(C)nc4CC)cc3)ncc2Cl)c1
- IC50 (Raji): 7.98 µM
- IC50 (Ramos [1]): 10.8 µM
- IC50 (NAMALVA): 4.9 µM

SMILES: Nc1ncnc2c1c(-c1ccc(Oc3ccccc3)cc1)nn2C1CCCN(C(=O)c2cn(CCOCCOCCOCCCc3cccc4c3CN(C3CCC(=O)NC3=O)C4=O)nn2)C1 (stereo not drawn)
- EC50 [17]: 29 nM

SMILES: C=CC(=O)N1CCc2ccc(N3C(=O)CCc4cnc5ccc(-c6cnn(C)c6)cc5c43)cc21
- IC50 [2]: 6.59 nM
- IC50 [18]: 5.18 µM
- IC50 [19]: 4.31 µM
- GI50 (U2932): 200 nM
- GI50 (Ramos [20]): 370 nM
